Where only a bound is given, the exact number is not on record here.

The test system of one test is Escherichia coli strain ATCC25922. Description: standard microdilution assay to determine minimum inhibitory concentrations (MICs). The following applies: Escherichia coli strain ATCC25922, standard microdilution assay. It is filed as cell-based. A digest of the protocol: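 Broth microdilution per CLSI (M7-A8/M100-S20), 100 μl final volume, with reference-strain quality control; MIC is the lowest inhibitory concentration. Scored "+"/"−" against a 16 micrograms/ml cutoff, "N/A" where unavailable.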
(Dilution methods test growth across graded concentrations, often in twofold steps.)
With `CC(N)CCCc1cc(-c2cc3cn(-c4ccc(CN5CCCCC5=N)cc4)c(=O)nc3[nH]2)cc(C(F)(F)F)c1` (stereo not drawn) [Compound 366], the “E. coli ATCC25922 MIC” value was “− (a “−” indicates that the compound has an MIC value greater than 16 micrograms/ml)”.
The same measure, in the same setting: as for `CC(N)CCCc1cc(Cl)c(F)c(-c2cc3cn(-c4ccc(C(C)NCCCNC(N)=NC5CCC5)cc4)c(=O)nc3[nH]2)c1` (stereo not drawn) [Compound 368], the entry is “+ (a “+” indicates that the compound has an MIC value of 16 micrograms/ml or less)”.
The same measure, in the same setting: to `CC(N)CCCc1cccc(-c2cc3cn(-c4ccc(C(C)NCCCNC(=N)N)cc4)c(=O)nc3[nH]2)n1` (stereo not drawn) [Compound 369] belongs “+ (a “+” indicates that the compound has an MIC value of 16 micrograms/ml or less)”; to `CC(N)CCCc1cccc(-c2cc3cn(-c4ccc(CNCCCNC(=N)N)cc4)c(=O)nc3[nH]2)n1` (stereo not drawn) [Compound 370], “+ (a “+” indicates that the compound has an MIC value of 16 micrograms/ml or less)”.
Consider `C[C@H](N)c1ccc(-n2cc3cc(-c4cc(CCCC(C)(C)N)cc(SC(F)(F)F)c4)[nH]c3nc2=O)cc1` [Compound 371], for which the “E. coli ATCC25922 MIC” value is listed as “− (a “−” indicates that the compound has an MIC value greater than 16 micrograms/ml)”.
Same read-out and setting: as for `CC(C)(N)CCCc1cc(Cl)c(F)c(-c2cc3cn(-c4ccc(CN)cc4)c(=O)nc3[nH]2)c1` [Compound 372], the entry is “− (a “−” indicates that the compound has an MIC value greater than 16 micrograms/ml)”; as for `C[C@H](N)c1ccc(-n2cc3cc(-c4cc(CCCC(C)(C)N)cc(Cl)c4F)[nH]c3nc2=O)cc1` [Compound 373], “− (a “−” indicates that the compound has an MIC value greater than 16 micrograms/ml)”.
The same measure, in the same setting: to `CCC(N)CCCc1cc(Cl)c(F)c(-c2cc3cn(-c4ccc(C(C)NCCCNC(=N)N)cc4)c(=O)nc3[nH]2)c1` (stereo not drawn) [Compound 374] belongs “+ (a “+” indicates that the compound has an MIC value of 16 micrograms/ml or less)”; to `CC(N)COCc1cc(Cl)c(F)c(-c2cc3cn(-c4ccc(CNCCCNC(=N)N)cc4)c(=O)nc3[nH]2)c1` (stereo not drawn) [Compound 375], “+ (a “+” indicates that the compound has an MIC value of 16 micrograms/ml or less)”.
Still for that read-out and setting: to `CC(N)COCc1cc(Cl)c(F)c(-c2cc3cn(-c4ccc(C(C)NCCCNC(=N)N)cc4)c(=O)nc3[nH]2)c1` (stereo not drawn) [Compound 376] belongs “+ (a “+” indicates that the compound has an MIC value of 16 micrograms/ml or less)”; to `C[C@H](NCCCNC(=N)N)c1ccc(-n2cc3cc(-c4cc(CSC(C)(C)CN)cc(SC(F)(F)F)c4)[nH]c3nc2=O)cc1` [Compound 377], “+ (a “+” indicates that the compound has an MIC value of 16 micrograms/ml or less)”; to `CN(CCCNC(=N)N)Cc1ccc(-n2cc3cc(-c4cc(CCCCN)cc(Cl)c4F)[nH]c3nc2=O)cc1` [Compound 378], “+ (a “+” indicates that the compound has an MIC value of 16 micrograms/ml or less)”.
For the compound `CC(N)CCCc1cc(Cl)c(F)c(-c2cc3cn(-c4ccc(CN(C)CCCNC(=N)N)cc4)c(=O)nc3[nH]2)c1` (stereo not drawn) [Compound 379], the “E. coli ATCC25922 MIC” value was “+ (a “+” indicates that the compound has an MIC value of 16 micrograms/ml or less)”.
Same read-out and setting: to `CCC(N)CCCc1cc(SC(F)(F)F)cc(-c2cc3cn(-c4ccc(CNCCCNC(=N)N)cc4)c(=O)nc3[nH]2)c1` (stereo not drawn) [Compound 380] belongs “+ (a “+” indicates that the compound has an MIC value of 16 micrograms/ml or less)”; to `CCC(N)CCCc1cc(SC(F)(F)F)cc(-c2cc3cn(-c4ccc(C(C)NCCCNC(=N)N)cc4)c(=O)nc3[nH]2)c1` (stereo not drawn) [Compound 381], “+ (a “+” indicates that the compound has an MIC value of 16 micrograms/ml or less)”; to `CN=C(N)NCCCNCc1ccc(-n2cc3cc(-c4cc(CCCC(C)N)cc(Cl)c4F)[nH]c3nc2=O)cc1` (stereo not drawn) [Compound 382], “+ (a “+” indicates that the compound has an MIC value of 16 micrograms/ml or less)”.
Same read-out and setting: as for `CC(N)CCCc1cc(Cl)c(F)c(-c2cc3cn(-c4ccc(C(C)NCCCNC(N)=NC5CNC5)cc4)c(=O)nc3[nH]2)c1` (stereo not drawn) [Compound 383], the entry is “+ (a “+” indicates that the compound has an MIC value of 16 micrograms/ml or less)”; as for `CC(NCCCNC(=N)N)c1ccc(-n2cc3cc(-c4cc(CCC5CC(N)C5)cc(Cl)c4F)[nH]c3nc2=O)cc1` (stereo not drawn) [Compound 384], “+ (a “+” indicates that the compound has an MIC value of 16 micrograms/ml or less)”; as for `CC(C)Cc1cc(CCCC(C)N)cc(-c2cc3cn(-c4ccc(C(C)NCCCNC(=N)N)cc4)c(=O)nc3[nH]2)c1` (stereo not drawn) [Compound 385], “+ (a “+” indicates that the compound has an MIC value of 16 micrograms/ml or less)”.
Still for that read-out and setting: to `CC(=O)NCCCNCc1ccc(-n2cc3cc(-c4cc(CCC[C@H](C)N)cc(Cl)c4F)[nH]c3nc2=O)cc1` [Compound 386] belongs “− (a “−” indicates that the compound has an MIC value greater than 16 micrograms/ml)”; to `CCc1cc(CCC[C@H](C)N)nc(-c2cc3cn(-c4ccc(CNCCCNC(=N)N)cc4)c(=O)nc3[nH]2)c1` [Compound 387], “+ (a “+” indicates that the compound has an MIC value of 16 micrograms/ml or less)”.
In the case of `CCc1cc(CCC[C@H](C)N)nc(-c2cc3cn(-c4ccc([C@H](C)NCCCNC(=N)N)cc4)c(=O)nc3[nH]2)c1` [Compound 388], the “E. coli ATCC25922 MIC” value is “+ (a “+” indicates that the compound has an MIC value of 16 micrograms/ml or less)”.
Still for that read-out and setting: as for `C[C@H](N)CCCc1cc(C(F)(F)F)cc(-c2cc3cn(-c4ccc(CNCCCNC(=N)N)cc4)c(=O)nc3[nH]2)n1` [Compound 389], the entry is “+ (a “+” indicates that the compound has an MIC value of 16 micrograms/ml or less)”.
Still for that read-out and setting: to `CC(NCCCNC(=N)N)c1ccc(-n2cc3cc(-c4cc(CCCC(N)CO)cc(Cl)c4F)[nH]c3nc2=O)cc1` (stereo not drawn) [Compound 391] belongs “+ (a “+” indicates that the compound has an MIC value of 16 micrograms/ml or less)”.
For the compound `CC[C@H](NCCCNC(=N)N)c1ccc(-n2cc3cc(-c4cc(CCC[C@H](C)N)cc(Cl)c4F)[nH]c3nc2=O)cc1` [Compound 392], the “E. coli ATCC25922 MIC” value was “+ (a “+” indicates that the compound has an MIC value of 16 micrograms/ml or less)”.
The same measure, in the same setting: as for `C[C@H](N)CCCc1cc(-c2cc3cn(-c4ccc([C@H](C)NCCCNC(=N)N)cc4)c(=O)nc3[nH]2)cc2c1CCC2` [Compound 393], the entry is “+ (a “+” indicates that the compound has an MIC value of 16 micrograms/ml or less)”.
The same measure, in the same setting: as for `C[C@H](N)CCCc1cc(Cl)c(F)c(-c2cc3cn(-c4ccc(CNCCCN/C(N)=N\[N+](=O)[O-])cc4)c(=O)nc3[nH]2)c1` [Compound 394], the entry is “+ (a “+” indicates that the compound has an MIC value of 16 micrograms/ml or less)”; as for `C[C@H](NCCCNC(=N)N)c1ccc(-n2cc3cc(-c4cc(C[C@H]5C[C@@H](N)C5)cc(C(F)(F)F)c4)[nH]c3nc2=O)cc1` [Compound 395], “+ (a “+” indicates that the compound has an MIC value of 16 micrograms/ml or less)”; as for `C[C@H](NCCCNC(=N)N)c1ccc(-n2cc3cc(-c4cc(C[C@H]5C[C@H](N)C5)cc(C(F)(F)F)c4)[nH]c3nc2=O)cc1` [Compound 396], “+ (a “+” indicates that the compound has an MIC value of 16 micrograms/ml or less)”.

Still in this test, the particulars now being: Escherichia coli strain ATCC25922, standard microdilution assay; read-out: E. coli ATCC25922 MIC.
One may read the MIC as the lowest concentration found to suppress growth. In the case of `C[C@H](N)CCCc1cc(C(F)(F)F)cc(-c2cc3cn(-c4ccc([C@H](C)NCCCNC(=N)N)cc4)c(=O)nc3[nH]2)n1` [Compound 390], the minimum inhibitory concentration (MIC) is not above 16 µg/mL.

The record behind these values is US9221827B2, “Antimicrobial compounds and methods of making and using the same” (Melinta Therapeutics, Inc., priority 2011, dated 2015).
